In the assay the test system is primary cultures of rat hippocampus neurons. The experiment in a line: release of [3H]-L-glutamate from primary cultures of rat hippocampus neurons (neuronal exocytosis). The format is cell-based. The protocol: Assay of the Activity of the Irreversibly Chemically Modified Peptides Derived from the SNAP-25 Protein on the Neuronal Exocytosis of [^3H]-L-Glutamate
The exocytosis of this neurotransmitter in neuronal cultures can be obtained by means of electric depolarization of the cells. The primary cultures of rat embryonic hippocampus are prepared using conventional methods [Blanes-Mira C., Merino J. M., Valera E., Fernández-Ballester G., Gutiérrez L. M., Viniegra S., Pérez-Payá E. and Ferrer-Montiel A. “Small peptides patterned after the N-terminus domain of SNAP25 inhibit SNARE complex assembly and regulated exocytosis” J. Neurochem. 88, 124-135] and are maintained in culture for 14 days in an incubator at 37° C. and 5% CO2. The cultures are incubated with [^3H]-L-glutamine in order to load them with [^3H]-L-glutamate for 3 h at 37° C. The excess [^3H]-L-glutamine is subsequent washed off and they are incubated with 0.1 mM of the peptides to be studied for 1 h at 37° C. The [^3H]-L-glutamate is released by means of depolarization with 75 mM KCl and 2 mM CaCl2 buffered in physiological buffer for 10 min at 37° C. The culture medium is collected and the amount of [^3H]-L-glutamate is quantified in a beta radiation meter. The results are normalized with regard to the release of [^3H]-L-glutamate in the absence of the peptide and corrected from the basal release in the absence of calcium.

This is an account of results in patent US9464129B2, “Neuronal exocytosis inhibiting peptides” (BCN PEPTIDES S.A., priority 2006, dated 2016).

“SEQ ID No.11: unmodified peptide derived from the amino acid sequence of the SNAP-25 protein, residues 12 to 17 (EEMQRR) (listed as Homo sapiens)”: the “concentration required to reach inhibition levels comparable to those of the irreversibly modified peptides” value (compared with modified peptides at 0.1 mM, in the range of 30 times greater) was approximately 3 mM. Besides, the “inhibition of the release of [3H]-L-glutamate” value (peptide 0.1 mM, 1 h at 37° C., depolarization with 75 mM KCl and 2 mM CaCl2, FIG. 1) amounted to 5%.
